Reference: publication PMC12681378, “Transcriptomic and enzymological evidence for plastid peptidoglycan synthesis in the gymnosperm Picea abies” (The Plant Journal, 2025)

Tests used:
Type in all cases: biochemical
[1] = biological target: T1, His_AnMurE (46T) (Nostoc sp. PCC 7120 = FACHB-418, UniProt Q8YWF0); assay: Amplex Red phosphate-release coupled assay; conditions: 30 C, pH 7.6, 10 mM MgCl2, ATP, UDP-MurNAc-L-Ala-D-Glu
T1 construct: gene murE; N-terminal His tag (pPROEX); E. coli
T1 sequence (Q8YWF0 1-496): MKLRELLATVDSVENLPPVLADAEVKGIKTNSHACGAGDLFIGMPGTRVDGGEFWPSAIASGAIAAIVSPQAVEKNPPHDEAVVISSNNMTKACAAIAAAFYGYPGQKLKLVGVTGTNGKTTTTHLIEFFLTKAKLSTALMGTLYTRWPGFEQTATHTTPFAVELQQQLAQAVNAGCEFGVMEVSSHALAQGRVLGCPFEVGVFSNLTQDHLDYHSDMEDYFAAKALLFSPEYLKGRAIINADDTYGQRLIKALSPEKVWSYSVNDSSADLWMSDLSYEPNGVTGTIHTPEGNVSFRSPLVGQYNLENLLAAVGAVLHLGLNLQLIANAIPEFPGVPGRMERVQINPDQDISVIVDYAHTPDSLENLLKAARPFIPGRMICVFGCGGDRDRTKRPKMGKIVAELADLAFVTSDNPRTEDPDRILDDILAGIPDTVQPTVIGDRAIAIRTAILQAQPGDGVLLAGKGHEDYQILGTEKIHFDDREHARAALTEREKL

[2] = biological target: T2, PpMurE-TP_Avi_His (1.1T) (Physcomitrium patens, UniProt Q3LHI5); assay: Amplex Red phosphate-release coupled assay; NADH assay; conditions: 30 C, pH 7.6, 10 mM MgCl2, ATP
T2 construct: gene MurE; from Leu63; transit peptide removed; E. coli
T2 sequence (Q3LHI5 entry or part of it): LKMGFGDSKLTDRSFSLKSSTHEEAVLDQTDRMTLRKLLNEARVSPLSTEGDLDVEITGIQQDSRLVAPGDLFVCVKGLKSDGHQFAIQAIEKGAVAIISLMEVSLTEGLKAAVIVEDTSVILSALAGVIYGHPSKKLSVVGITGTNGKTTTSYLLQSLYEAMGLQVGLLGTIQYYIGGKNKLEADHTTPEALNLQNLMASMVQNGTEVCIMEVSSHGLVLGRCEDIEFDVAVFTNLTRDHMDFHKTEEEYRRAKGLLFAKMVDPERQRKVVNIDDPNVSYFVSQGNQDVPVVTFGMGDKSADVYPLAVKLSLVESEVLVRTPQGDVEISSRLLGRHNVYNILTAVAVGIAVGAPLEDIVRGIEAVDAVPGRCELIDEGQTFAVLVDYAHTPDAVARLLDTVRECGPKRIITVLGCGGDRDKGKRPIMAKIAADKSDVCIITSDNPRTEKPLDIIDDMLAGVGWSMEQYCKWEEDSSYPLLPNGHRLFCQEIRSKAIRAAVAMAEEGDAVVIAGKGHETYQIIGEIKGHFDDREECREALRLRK

[3] = biological target: T3, Streptococcus pneumoniae MurE (Streptococcus pneumoniae, UniProt Q8CWQ5); assay: Amplex Red phosphate-release coupled assay; conditions: 30 C, pH 7.6, 10 mM MgCl2, ATP
T3 construct: cloned into pET21; E. coli
T3 sequence (Q8CWQ5 1-481): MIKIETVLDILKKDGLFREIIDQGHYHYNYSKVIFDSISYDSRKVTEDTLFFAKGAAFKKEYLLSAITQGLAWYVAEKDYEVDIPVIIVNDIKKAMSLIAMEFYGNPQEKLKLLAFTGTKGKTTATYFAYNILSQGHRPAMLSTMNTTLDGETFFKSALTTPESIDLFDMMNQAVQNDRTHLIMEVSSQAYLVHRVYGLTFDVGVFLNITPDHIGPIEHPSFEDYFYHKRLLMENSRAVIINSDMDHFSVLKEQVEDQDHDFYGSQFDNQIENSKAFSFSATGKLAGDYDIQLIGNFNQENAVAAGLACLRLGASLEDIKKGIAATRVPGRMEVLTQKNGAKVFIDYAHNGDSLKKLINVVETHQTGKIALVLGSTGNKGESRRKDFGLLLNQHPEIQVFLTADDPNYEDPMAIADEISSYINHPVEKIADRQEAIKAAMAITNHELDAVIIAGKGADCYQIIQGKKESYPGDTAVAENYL

[4] = biological target: T4, Pseudomonas aeruginosa MurE (Pseudomonas aeruginosa, UniProt Q59650); assay: Amplex Red phosphate-release coupled assay; NADH assay; conditions: 30 C, pH 7.6, 10 mM MgCl2, ATP
T4 construct: cloned into pET21; E. coli
T4 sequence (Q59650 1-487): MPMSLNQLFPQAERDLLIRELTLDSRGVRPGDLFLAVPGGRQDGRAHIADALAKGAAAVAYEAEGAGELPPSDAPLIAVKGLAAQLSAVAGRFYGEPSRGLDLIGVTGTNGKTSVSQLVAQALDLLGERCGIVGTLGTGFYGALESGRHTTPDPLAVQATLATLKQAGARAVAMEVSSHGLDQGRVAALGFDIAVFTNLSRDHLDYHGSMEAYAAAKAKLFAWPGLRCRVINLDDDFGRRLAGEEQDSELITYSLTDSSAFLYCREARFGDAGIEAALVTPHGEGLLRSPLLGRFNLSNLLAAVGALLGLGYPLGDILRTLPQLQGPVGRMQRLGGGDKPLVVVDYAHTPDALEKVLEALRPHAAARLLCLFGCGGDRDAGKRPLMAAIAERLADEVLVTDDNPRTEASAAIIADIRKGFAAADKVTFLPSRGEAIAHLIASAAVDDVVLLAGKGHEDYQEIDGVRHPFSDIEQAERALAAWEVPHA

[5] = biological target: T1, His_AnMurE (46T); assay: inhibition seen in Amplex Red coupled assay; conditions: product inhibition; 30 C, pH 7.6

## N[C@@H](CSC[C@H](N)C(=O)O)C(=O)O (racemic) [D, L-lanthionine]
[1]
  Amplex Red phosphate-release coupled assay: D, L‐lanthionine was equally as efficiently incorporated as D, L‐DAP by Anabaena MurE

## CC(=O)N[C@H]1[C@@H](OP(=O)(O)OP(=O)(O)OC[C@H]2O[C@@H](n3ccc(=O)[nH]c3=O)[C@H](O)[C@@H]2O)O[C@H](CO)[C@@H](O)[C@@H]1O[C@H](C)C(=O)N[C@@H](C)C(=O)N[C@H](CCC(=O)O)C(=O)O [UDP-N-acetylmuramoyl-L-alanyl-D-glutamate]
[2]; D,L-DAP
  Amplex Red phosphate-release coupled assay; NADH assay: UDP‐N‐acetylmuramoyl‐L‐alanyl‐D‐glutamate as the recipient molecule
[3]; L-lysine
  Amplex Red phosphate-release coupled assay: L‐lysine as substrates with UDP‐N‐acetylmuramoyl‐L‐alanyl‐D‐glutamate as the acceptor
[4]; D,L-DAP
  Amplex Red phosphate-release coupled assay; NADH assay: D, L‐DAP) and UDP‐N‐acetylmuramoyl‐ L‐alanyl‐D‐glutamate as substrates

## N[C@H](CCC[C@H](N)C(=O)O)C(=O)O [D, L-diaminopimelate]
[2]; UDP-MurNAc-L-Ala-D-Glu
  Amplex Red phosphate-release coupled assay; NADH assay: predominant substrate for both the moss, PpMurE, and cyanobacterial, AnMurE, ligases
[1]
  Amplex Red phosphate-release coupled assay: D, L‐lanthionine was equally as efficiently incorporated as D, L‐DAP by Anabaena MurE
[4]; UDP-MurNAc-L-Ala-D-Glu
  Amplex Red phosphate-release coupled assay; NADH assay: an order of magnitude less active than Pseudomonas aeruginosa MurE

## NCCCC[C@H](N)C(=O)O [L-lysine]
[3]; UDP-MurNAc-L-Ala-D-Glu
  Amplex Red phosphate-release coupled assay: able to utilize both L‐hydroxylysine and L‐lysine as substrates

## Nc1ncnc2c1ncn2[C@@H]1O[C@H](COP(=O)(O)OP(=O)(O)O)[C@@H](O)[C@H]1O [ADP]
[5]
  inhibition seen in Amplex Red coupled assay: an observed inhibitory effect of ADP on AnMurE in the Amplex Red assay
